Measurements from PubChem BioAssay (NCI).
Values joined by “and” are separate entries in the source; they are usually repeats but may differ in a detail not shown here. Equal values may be shown once.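 Each compound was tested at five concentrations against cells in 96-well plates for 48 hours. Abbreviation: GI50, concentration required for 50% inhibition of growth. TGI denotes the concentration required for complete inhibition of growth.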

Columns and labels:
Experiment in all cases: inhibition of tumour cell growth, NCI panel, 48 h
MDA-MB-231 breast = test system: MDA-MB-231 breast
CCRF-CEM leukemia = test system: CCRF-CEM leukemia
SN12C renal = test system: SN12C renal
SR leukemia = test system: SR leukemia
A498 renal = test system: A498 renal
HL-60(TB) leukemia = test system: HL-60(TB) leukemia
UACC-257 melanoma = test system: UACC-257 melanoma
RPMI-8226 leukemia = test system: RPMI-8226 leukemia
MDA-N = test system: MDA-N
RXF 393 renal = test system: RXF 393 renal
HS 578T breast = test system: HS 578T breast
SNB-75 CNS = test system: SNB-75 CNS
SK-MEL-28 melanoma = test system: SK-MEL-28 melanoma
A549 NSCLC = test system: A549 NSCLC
HCT-116 colon = test system: HCT-116 colon
SF-539 CNS = test system: SF-539 CNS
NCI/ADR-RES ovarian = test system: NCI/ADR-RES ovarian
IGROV1 ovarian = test system: IGROV1 ovarian
OVCAR-8 ovarian = test system: OVCAR-8 ovarian
KM12 colon = test system: KM12 colon
786-0 renal = test system: 786-0 renal
HOP-62 NSCLC = test system: HOP-62 NSCLC
SW-620 colon = test system: SW-620 colon
PC-3 prostate = test system: PC-3 prostate
MCF7 breast = test system: MCF7 breast
NCI-H522 lung = test system: NCI-H522 lung
SK-MEL-2 melanoma = test system: SK-MEL-2 melanoma
MDA-MB-435 = test system: MDA-MB-435
M14 melanoma = test system: M14 melanoma
T-47D breast = test system: T-47D breast
HT29 colon = test system: HT29 colon
HCC-2998 colon = test system: HCC-2998 colon
SNB-19 CNS = test system: SNB-19 CNS
SF-295 CNS = test system: SF-295 CNS
HCT-15 colon = test system: HCT-15 colon
NCI-H226 lung = test system: NCI-H226 lung
MOLT-4 leukemia = test system: MOLT-4 leukemia
TK-10 renal = test system: TK-10 renal
DU-145 prostate = test system: DU-145 prostate
LOX IMVI melanoma = test system: LOX IMVI melanoma
OVCAR-4 ovarian = test system: OVCAR-4 ovarian
ACHN renal = test system: ACHN renal
OVCAR-3 ovarian = test system: OVCAR-3 ovarian
CAKI-1 renal = test system: CAKI-1 renal
MALME-3M melanoma = test system: MALME-3M melanoma
NCI-H460 lung = test system: NCI-H460 lung
NCI-H23 lung = test system: NCI-H23 lung
HOP-92 NSCLC = test system: HOP-92 NSCLC
SF-268 CNS = test system: SF-268 CNS
UO-31 renal = test system: UO-31 renal
BT-549 breast = test system: BT-549 breast
SK-OV-3 ovarian = test system: SK-OV-3 ovarian
U251 CNS = test system: U251 CNS
EKVX NSCLC = test system: EKVX NSCLC
OVCAR-5 ovarian = test system: OVCAR-5 ovarian
SK-MEL-5 melanoma = test system: SK-MEL-5 melanoma
COLO 205 colon = test system: COLO 205 colon
K-562 leukemia = test system: K-562 leukemia
UACC-62 melanoma = test system: UACC-62 melanoma

`Cc1c(F)c(N)c2c(=O)cc(-c3ccc(NC(=O)[C@@H](N)CCCCN)c(F)c3)oc2c1F` was tested, and the TGI (MDA-MB-231 breast) was 33.1 µM and 30.8 µM, the TGI (CCRF-CEM leukemia) was 22.9 µM and the TGI (SN12C renal) was 31.7 µM and 32.7 µM. The GI50 (SR leukemia) was 5.84 µM and 2.53 µM, the TGI (SR leukemia) was 20.3 µM and 9.55 µM and the TGI (A498 renal) was 220 nM. The GI50 (HL-60(TB) leukemia) was 11.2 µM and 2.41 µM, the TGI (HL-60(TB) leukemia) was 29.3 µM and 30.4 µM and the GI50 (UACC-257 melanoma) was 302 nM. For the same compound, the TGI (UACC-257 melanoma) was 24.7 µM and 27.8 µM, the GI50 (RPMI-8226 leukemia) was 3480 nM and 936 nM and the TGI (RPMI-8226 leukemia) was 32.6 µM and 22.3 µM. The TGI (MDA-N) was 28.7 µM and 24.6 µM, the TGI (RXF 393 renal) was 36.1 µM and 53.3 µM and the GI50 (HS 578T breast) was 23.5 µM and 11.5 µM. The TGI (HS 578T breast) was 53.4 µM and 45.8 µM, the TGI (SNB-75 CNS) was 13.6 µM and the TGI (SK-MEL-28 melanoma) was 35.1 µM and 29 µM. The GI50 (A549 NSCLC) was 3030 nM and 590 nM, the TGI (A549 NSCLC) was 31 µM and 18.4 µM and the TGI (HCT-116 colon) was 21.5 µM and 22.1 µM. For the same compound, the GI50 (SF-539 CNS) was 17.1 µM and 5.78 µM, the TGI (SF-539 CNS) was 33.3 µM and 13.6 µM and the TGI (NCI/ADR-RES ovarian) was 51.9 µM and 78.7 µM. The TGI (IGROV1 ovarian) was 19.5 µM and 18.1 µM, the TGI (OVCAR-8 ovarian) was 33 µM and 24.6 µM and the TGI (KM12 colon) was 24.8 µM and 22.4 µM. The TGI (786-0 renal) was 24 µM and 26.4 µM, the TGI (HOP-62 NSCLC) was 27.3 µM and 24 µM and the GI50 (SW-620 colon) was 7.81 µM and 1.71 µM. For the same compound, the TGI (SW-620 colon) was 39 µM and 17.3 µM, the TGI (PC-3 prostate) was 32 µM and 29.3 µM and the TGI (MCF7 breast) was 1810 nM and 1380 nM. For the same compound, the GI50 (NCI-H522 lung) was 19.7 µM and 4.68 µM, the TGI (NCI-H522 lung) was 45.5 µM and 35.3 µM and the TGI (SK-MEL-2 melanoma) was 34.6 µM and 47.1 µM. The TGI (MDA-MB-435) was 26.6 µM and 20.5 µM, the TGI (M14 melanoma) was 46 µM and 39.4 µM and the TGI (T-47D breast) was 28.7 µM and > 57.3 µM. The TGI (HT29 colon) was 31 µM and 26.4 µM, the GI50 (HCC-2998 colon) was 253 nM and 769 nM and the TGI (HCC-2998 colon) was 18.7 µM and 19.7 µM. For the same compound, the TGI (SNB-19 CNS) was > 78.7 µM and 49.5 µM, the TGI (SF-295 CNS) was 28.5 µM and 32.3 µM and the TGI (HCT-15 colon) was 30.4 µM and 30.3 µM. For the same compound, the GI50 (NCI-H226 lung) was 44.6 nM, the TGI (NCI-H226 lung) was 15 µM and the GI50 (MOLT-4 leukemia) was 3300 nM and 1380 nM. For the same compound, the TGI (MOLT-4 leukemia) was 15.1 µM and 5.79 µM, the TGI (TK-10 renal) was 21.4 µM and 26.4 µM and the TGI (DU-145 prostate) was 41.3 µM and 27.4 µM. The TGI (LOX IMVI melanoma) was 41.3 µM and 27.7 µM, the TGI (OVCAR-4 ovarian) was 32.7 µM and 26.7 µM and the TGI (ACHN renal) was 31.1 µM and 25.6 µM. For the same compound, the GI50 (OVCAR-3 ovarian) was 508 nM and 249 nM, the TGI (OVCAR-3 ovarian) was 20.7 µM and 14.8 µM and the TGI (CAKI-1 renal) was 9.01 µM and 29.7 µM. For the same compound, the GI50 (MALME-3M melanoma) was 23.6 µM and 10 µM, the TGI (MALME-3M melanoma) was 44.2 µM and 33.6 µM and the TGI (NCI-H460 lung) was 16.2 µM and 16.6 µM. For the same compound, the GI50 (NCI-H23 lung) was 5.61 µM and 15.4 µM, the TGI (NCI-H23 lung) was 23.3 µM and 37.5 µM and the TGI (HOP-92 NSCLC) was 68.5 µM and 39.8 µM. For the same compound, the TGI (SF-268 CNS) was 34.7 µM and 39.6 µM, the TGI (UO-31 renal) was 33.7 µM and 22.1 µM and the TGI (BT-549 breast) was 50.3 µM and 49.6 µM. For the same compound, the TGI (SK-OV-3 ovarian) was 31.6 µM and 32.6 µM, the GI50 (U251 CNS) was 2960 nM and 842 nM and the TGI (U251 CNS) was 21.9 µM and 15.1 µM. The TGI (EKVX NSCLC) was 28.4 µM and 22.6 µM, the GI50 (OVCAR-5 ovarian) was 947 nM and 249 nM and the TGI (OVCAR-5 ovarian) was 25.2 µM and 21.9 µM. For the same compound, the GI50 (SK-MEL-5 melanoma) was 13.2 µM and 2.63 µM, the TGI (SK-MEL-5 melanoma) was 27.4 µM and 27.2 µM and the GI50 (COLO 205 colon) was 14.9 µM and 6.93 µM. The TGI (COLO 205 colon) was 31.5 µM and 24.4 µM, the GI50 (K-562 leukemia) was 652 nM and 278 nM and the TGI (K-562 leukemia) was 36.4 µM and 10.4 µM.
`C1=NCCNCCN=Cc2ccccc2OCc2cccc(n2)COc2ccccc21` was tested, and the TGI (MDA-MB-231 breast) was > 95.5 µM, the TGI (CCRF-CEM leukemia) was > 34.3 µM and the TGI (SN12C renal) was > 100 µM. For the same compound, the TGI (SR leukemia) was > 100 µM, the TGI (A498 renal) was > 100000 nM and the TGI (HL-60(TB) leukemia) was 6.84 µM. For the same compound, the TGI (UACC-257 melanoma) was > 100 µM, the TGI (RPMI-8226 leukemia) was > 54.1 µM and the TGI (MDA-N) was 31.4 µM. The TGI (RXF 393 renal) was > 100 µM, the TGI (HS 578T breast) was > 100 µM and the TGI (SNB-75 CNS) was > 31.2 µM. The TGI (SK-MEL-28 melanoma) was > 100 µM, the TGI (A549 NSCLC) was > 100 µM and the TGI (HCT-116 colon) was > 100 µM. The TGI (SF-539 CNS) was 11.1 µM, the TGI (NCI/ADR-RES ovarian) was 21.1 µM and the TGI (IGROV1 ovarian) was > 100 µM. For the same compound, the TGI (OVCAR-8 ovarian) was 37.5 µM, the TGI (KM12 colon) was > 62.2 µM and the TGI (786-0 renal) was > 39.1 µM. The TGI (HOP-62 NSCLC) was 54.8 µM, the TGI (SW-620 colon) was > 75.9 µM and the TGI (PC-3 prostate) was > 95.3 µM. The TGI (MCF7 breast) was > 56900 nM, the TGI (NCI-H522 lung) was > 66.8 µM and the TGI (SK-MEL-2 melanoma) was 99.8 µM. The TGI (MDA-MB-435) was > 68.7 µM, the TGI (M14 melanoma) was > 46.6 µM and the TGI (T-47D breast) was > 100 µM. The TGI (HT29 colon) was 47.3 µM, the TGI (UACC-62 melanoma) was > 64.3 µM and the TGI (HCC-2998 colon) was > 55.5 µM. For the same compound, the TGI (SNB-19 CNS) was > 100 µM, the TGI (SF-295 CNS) was > 51.4 µM and the TGI (HCT-15 colon) was 24.8 µM. The TGI (NCI-H226 lung) was > 75.7 µM, the TGI (MOLT-4 leukemia) was > 82 µM and the TGI (TK-10 renal) was > 75.6 µM. For the same compound, the TGI (DU-145 prostate) was > 100 µM, the TGI (LOX IMVI melanoma) was 34 µM and the TGI (OVCAR-4 ovarian) was 99.7 µM. For the same compound, the TGI (ACHN renal) was > 100 µM, the TGI (OVCAR-3 ovarian) was > 65.3 µM and the TGI (CAKI-1 renal) was > 95.6 µM. For the same compound, the TGI (MALME-3M melanoma) was > 80.7 µM, the TGI (NCI-H460 lung) was > 100 µM and the TGI (NCI-H23 lung) was > 52.9 µM. For the same compound, the TGI (HOP-92 NSCLC) was > 100 µM, the TGI (SF-268 CNS) was > 96 µM and the TGI (UO-31 renal) was > 30.7 µM. For the same compound, the TGI (BT-549 breast) was 44.4 µM, the TGI (SK-OV-3 ovarian) was > 100 µM and the TGI (U251 CNS) was > 39.7 µM. For the same compound, the TGI (EKVX NSCLC) was > 100 µM, the TGI (OVCAR-5 ovarian) was > 100 µM and the TGI (SK-MEL-5 melanoma) was > 49.5 µM. For the same compound, the TGI (COLO 205 colon) was > 100 µM and the TGI (K-562 leukemia) was > 79.5 µM.
